Values quoted from earlier work in patent publication US20080181972A1, “Compositions and Methods for Maintaining, Strengthening, Improving, or Promoting Eye Health” (priority 2007, published 2008).

Experiments:
[1] = system: human endothelial cell cultures
AGE from Amadori adducts = conditions: in vitro and in vivo studies
[2] = long-term feeding to rats, 1% in drinking water
[3] = short- and long-term studies
H2O2 formation = conditions: both in vitro and in vivo
[4] = phytoestrogenic isoflavones
LDL = conditions: conjugated diene, lipid peroxides and TBARS after cupric sulfate
[5] = system: bovine aortic endothelial cell- and human endothelial cell-mediated LDL oxidation; conditions: bovine aortic and human endothelial cells
[6] = in vivo
intracellular GSH = conditions: in vitro (cell culture)
[7] = system: intracellular GSH in lung, liver and kidney cells; conditions: in vivo, liver and kidney cells of mice injected daily with 4, 8, or 16 mg/kg for 11 days

**Q.** What does the source list for `Cc1ncc(C[n+]2csc(CCO)c2C)c(N)n1` [thiamine]?
**A.** AGE generation [1]: effective in reducing AGE generation; AGE accumulation in the retina (retina of diabetic rats): preventing AGE accumulation

**Q.** Which “inhibition of the formation of AGE from Amadori adducts” value (AGE from Amadori adducts) does the source give for `Cc1ncc(CO)c(CN)c1O` [PM, pyridoxamine] here?
**A.** Its value is “potent inhibitor”.

**Q.** For `NC(=O)c1cccnc1` [niacinamide], which carcinogenic effects [2] is on record?
**A.** The carcinogenic effects was “No carcinogenic effects”.

**Q.** What about the toxicity [3] of the same molecule?
**A.** Its toxicity is “low toxicity”.

**Q.** Which results are given for `O=c1c(-c2ccc(O)cc2)coc2cc(O)cc(O)c12` [genistein]?
**A.** tumor promoter-induced H2O2 formation (H2O2 formation): strongly inhibited; order of reactivity in scavenging the radical in the aqueous phase [4]: genistein>daidzein=genistin approximately equal to biochanin A=daidzein>formononentin approximately equal to onionin; order of ability to reduce LDL oxidizability (LDL): quercetine>morin>pelargonidin>genistein>naringin>apigenin; endothelial cell-mediated LDL oxidation [5]: inhibited

**Q.** Which results are given for `C/C(=C(\CCOP(=O)(O)O)SC(=O)c1ccccc1)N(C=O)Cc1cnc(C)nc1N` [benfotiamine]?
**A.** AGE generation [1]: effective in reducing AGE generation; AGE accumulation in the retina (retina of diabetic rats): preventing AGE accumulation

**Q.** Which “level at which no adverse effects have been observed” value (in vivo) does the source give for `CC(=O)Oc1c(C)c(C)c2c(c1C)CC[C@@](C)(CCC[C@H](C)CCC[C@H](C)CCCC(C)C)O2` (racemic) [DL-α-tocopheryl acetate] here?
**A.** The value was at most 800 mg.

**Q.** With `CC1=C(/C=C/C(C)=C/C=C/C(C)=C/C=C/C=C(C)/C=C/C=C(C)/C=C/C2=C(C)CCCC2(C)C)C(C)(C)CCC1` [beta-carotene, Beta-carotene] as the molecule, how does the “efficiency of conversion to vitamin A in the body” value [6] read?
**A.** The value was “approximately 50%”.

**Q.** What about the “dosage level with no observed adverse effects” value (healthy, non-smokers) of the same molecule?
**A.** Its value is at most 25 mg per day.

**Q.** What about the adverse effects observed (individuals who receive 20 mg/day) of the same molecule?
**A.** The adverse effects observed was “increased risk of fatal coronary heart attacks in men with previous myocardial infarction and an increased risk of lung cancer among male smokers”.

**Q.** For `O=C1O[C@H]([C@@H](O)CO)C(O)=C1O` [vitamin C, Ascorbic acid], which “daily intake without any known adverse effects” value (consumed daily) is on record?
**A.** Its value is ≥ 1,000 mg.

**Q.** What does the source list for `O=C(O)CCCCC1CCSS1` (stereo not drawn) [ALA, Alpha-lipoic acid]?
**A.** increase of intracellular GSH levels (intracellular GSH): 30-70%; increase of intracellular GSH levels [7]: 30-70%

**Q.** With `CC1=C(/C=C/C(C)=C/C=C/C(C)=C/C=C/C=C(C)/C=C/C=C(C)/C=C/C2=C(C)C(=O)[C@@H](O)CC2(C)C)C(C)(C)C[C@H](O)C1=O` [Astaxanthin] as the molecule, how does the ill effects (daily dose of 19.25 mg over 29 days, healthy humans) read?
**A.** The ill effects was “no ill effects”.
